Experimental data as given in paper PMC7917164 (Bioorganic & medicinal chemistry, 2020).
Where a name gives a salt, the structure may show the parent alone.

Test system: Aβ42 levels (γ-secretase modulation) in SHSY5Y-APP cells
Assay: Cell-based ELISA assay for measuring extracellular Aβ42 levels
Set-up: species or system human
Settings: not given

Going from CCCn1nc2c(c1Nc1nc(-c3ccc(-n4cnc(C)c4)c(OC)n3)cs1)CCCC2 [Compound 34, 4-(6-methoxy-5-(4-methyl-1H-imidazol-1-yl)pyridin-2-yl)-N-(2-propyl-4,5,6,7-tetrahydro-2H-indazol-3-yl)thiazol-2-amine] to COc1nc(-c2csc(Nc3c4c(nn3CCO)CCCC4)n2)ccc1-n1cnc(C)c1 [Compound 49, 2-(3-((4-(6-methoxy-5-(4-methyl-1H-imidazol-1-yl)pyridin-2-yl)thiazol-2-yl)amino)-4,5,6,7-tetrahydro-2H-indazol-2-yl)ethanol], the “Parent Aβ42 IC50” value rises from 148 nM to 362 nM (2.4-fold).

CCCn1nc(C(C)(C)C)cc1Nc1nc(-c2ccc(-n3cnc(C)c3)c(OC)n2)cs1 [Compound 53, N-(3-(tert-butyl)-1-propyl-1H-pyrazol-5-yl)-4-(6-methoxy-5-(4-methyl-1H-imidazol-1-yl)pyridin-2-yl)thiazol-2-amine dihydrochloride] and COc1nc(-c2csc(Nc3cc(C(C)(C)C)nn3CC(F)(F)F)n2)ccc1-n1cnc(C)c1 [Compound 57, N-(3-(tert-butyl)-1-(2,2,2-trifluoroethyl)-1H-pyrazol-5-yl)-4-(6-methoxy-5-(4-methyl-1H-imidazol-1-yl)pyridin-2-yl)thiazol-2-amine] are within 1.5-fold of each other in “Parent Aβ42 IC50” value: 86 nM for the first, 87 nM for the second.

First: COc1nc(-c2csc(Nc3cc(C(F)(F)F)nn3CC(F)(F)F)n2)ccc1-n1cnc(C)c1 [Compound 62, 4-(6-methoxy-5-(4-methyl-1H-imidazol-1-yl)pyridin-2-yl)-N-(1-(2,2,2-trifluoroethyl)-3-(trifluoromethyl)-1H-pyrazol-5-yl)thiazol-2-amine]
Second: COc1nc(-c2csc(Nc3c4c(nn3CC(F)(F)F)CCCC4)n2)ccc1-n1cnc(C)c1 [Compound 47, 4-(6-methoxy-5-(4-methyl-1H-imidazol-1-yl)pyridin-2-yl)-N-(2-(2,2,2-trifluoroethyl)-4,5,6,7-tetrahydro-2H-indazol-3-yl)thiazol-2-amine]
The “Parent Aβ42 IC50” value of the first is 4.3-fold higher: 771 nM for the first, 179 nM for the second.

First: CCn1nc2c(c1Nc1nc(-c3ccc(-n4cnc(C)c4)c(OC)n3)cs1)C(C)CC2(C)C (racemic) [Compound 72, (+/−)-N-(2-ethyl-4,6,6-trimethyl-2,4,5,6-tetrahydrocyclopenta[c]pyrazol-3-yl)-4-(6-methoxy-5-(4-methyl-1H-imidazol-1-yl)pyridin-2-yl)thiazol-2-amine]
Second: CCn1nc(C(C)C)cc1Nc1nc(-c2ccc(-n3cnc(C)c3)c(OC)n2)cs1 [Compound 58, N-(1-ethyl-3-isopropyl-1H-pyrazol-5-yl)-4-(6-methoxy-5-(4-methyl-1H-imidazol-1-yl)pyridin-2-yl)thiazol-2-amine]
The “Parent Aβ42 IC50” value of the first is 8-fold lower: 49 nM for the first, 394 nM for the second.

COc1nc(-c2csc(Nc3c4c(nn3C3CCCC3)CCCC4)n2)ccc1-n1cnc(C)c1 [Compound 38, N-(2-cyclopentyl-4,5,6,7-tetrahydro-2H-indazol-3-yl)-4-(6-methoxy-5-(4-methyl-1H-imidazol-1-yl)pyridin-2-yl)thiazol-2-amine] and COc1nc(-c2csc(Nc3c4c(nn3C(C)C)CCCC4)n2)ccc1-n1cnc(C)c1 [Compound 35, N-(2-isopropyl-4,5,6,7-tetrahydro-2H-indazol-3-yl)-4-(6-methoxy-5-(4-methyl-1H-imidazol-1-yl)pyridin-2-yl)thiazol-2-amine] are within 1.5-fold of each other in “Parent Aβ42 IC50” value: 225 nM for the first, 195 nM for the second.

For COc1nc(-c2csc(Nc3c4c(nn3C(C)(C)C)CCCC4)n2)ccc1-n1cnc(C)c1 [Compound 36, N-(2-(tert-butyl)-4,5,6,7-tetrahydro-2H-indazol-3-yl)-4-(6-methoxy-5-(4-methyl-1H-imidazol-1-yl)pyridin-2-yl)thiazol-2-amine], the “Parent Aβ42 IC50” value was 216 nM.

Same assay, conditions: ratio of Aβ42 IC50 values

For Cc1cn(-c2ccc(-c3csc(Nc4c5c(nn4C)CCCC5)n3)cc2)cn1 [Compound 31a], the “Loss in activity (Aβ42) versus the parent fluorophenyl compound” value was “greater than 2 fold”.
CCn1nc(C(C)(C)C)cc1Nc1nc(-c2ccc(-n3cnc(C)c3)cc2)cs1 [Compound 33a] was tested, and the “Loss in activity (Aβ42) versus the parent fluorophenyl compound” value was “greater than 2 fold”.
